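Where inhibition never reached the appropriate level, the endpoint shown equals the highest concentration tested. Otherwise, values were interpolated linearly from a five-concentration, 48-hour dose response in 96-well plates. At the TGI there is no net growth.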
Tests used:
Test in all cases: inhibition of tumour cell growth, NCI panel, 48 h
SF-539 CNS = tested on: SF-539 CNS
SF-295 CNS = tested on: SF-295 CNS
M14 melanoma = tested on: M14 melanoma
CCRF-CEM leukemia = tested on: CCRF-CEM leukemia
HOP-92 NSCLC = tested on: HOP-92 NSCLC
ACHN renal = tested on: ACHN renal
UACC-257 melanoma = tested on: UACC-257 melanoma
UO-31 renal = tested on: UO-31 renal
HS 578T breast = tested on: HS 578T breast
OVCAR-8 ovarian = tested on: OVCAR-8 ovarian
SW-620 colon = tested on: SW-620 colon
LOX IMVI melanoma = tested on: LOX IMVI melanoma
NCI-H23 lung = tested on: NCI-H23 lung
HT29 colon = tested on: HT29 colon
TK-10 renal = tested on: TK-10 renal
RPMI-8226 leukemia = tested on: RPMI-8226 leukemia
MDA-MB-231 breast = tested on: MDA-MB-231 breast
SF-268 CNS = tested on: SF-268 CNS
MDA-MB-435 = tested on: MDA-MB-435
T-47D breast = tested on: T-47D breast
OVCAR-4 ovarian = tested on: OVCAR-4 ovarian
NCI-H522 lung = tested on: NCI-H522 lung
U251 CNS = tested on: U251 CNS
SK-OV-3 ovarian = tested on: SK-OV-3 ovarian
NCI-H460 lung = tested on: NCI-H460 lung
KM12 colon = tested on: KM12 colon
HL-60(TB) leukemia = tested on: HL-60(TB) leukemia
CAKI-1 renal = tested on: CAKI-1 renal
K-562 leukemia = tested on: K-562 leukemia
RXF 393 renal = tested on: RXF 393 renal
SNB-75 CNS = tested on: SNB-75 CNS
A549 NSCLC = tested on: A549 NSCLC
MALME-3M melanoma = tested on: MALME-3M melanoma
SK-MEL-28 melanoma = tested on: SK-MEL-28 melanoma
SR leukemia = tested on: SR leukemia
IGROV1 ovarian = tested on: IGROV1 ovarian
PC-3 prostate = tested on: PC-3 prostate
NCI/ADR-RES ovarian = tested on: NCI/ADR-RES ovarian
HCT-116 colon = tested on: HCT-116 colon
EKVX NSCLC = tested on: EKVX NSCLC
MOLT-4 leukemia = tested on: MOLT-4 leukemia
SK-MEL-5 melanoma = tested on: SK-MEL-5 melanoma
OVCAR-5 ovarian = tested on: OVCAR-5 ovarian
COLO 205 colon = tested on: COLO 205 colon
HCT-15 colon = tested on: HCT-15 colon
HOP-62 NSCLC = tested on: HOP-62 NSCLC
MDA-N = tested on: MDA-N
SK-MEL-2 melanoma = tested on: SK-MEL-2 melanoma
SN12C renal = tested on: SN12C renal
SNB-19 CNS = tested on: SNB-19 CNS
UACC-62 melanoma = tested on: UACC-62 melanoma
OVCAR-3 ovarian = tested on: OVCAR-3 ovarian
DU-145 prostate = tested on: DU-145 prostate
MCF7 breast = tested on: MCF7 breast
786-0 renal = tested on: 786-0 renal
A498 renal = tested on: A498 renal
HCC-2998 colon = tested on: HCC-2998 colon
NCI-H226 lung = tested on: NCI-H226 lung
BT-549 breast = tested on: BT-549 breast

Cn1c(N/N=C/c2ccccc2)nc(-c2ccc([N+](=O)[O-])cc2)c(C#N)c1=O
TGI (SF-539 CNS): > 100 µM
TGI (SF-295 CNS): > 100 µM
TGI (M14 melanoma): > 100 µM
TGI (CCRF-CEM leukemia): > 100 µM
TGI (HOP-92 NSCLC): 80.6 µM
TGI (ACHN renal): > 100 µM
TGI (UACC-257 melanoma): > 100 µM
TGI (UO-31 renal): > 100 µM
TGI (HS 578T breast): > 100 µM
TGI (OVCAR-8 ovarian): > 100 µM
TGI (SW-620 colon): > 100 µM
TGI (LOX IMVI melanoma): > 100 µM
TGI (NCI-H23 lung): > 100 µM
TGI (HT29 colon): > 100 µM
TGI (TK-10 renal): > 100 µM
TGI (RPMI-8226 leukemia): > 100 µM
TGI (MDA-MB-231 breast): 86.7 µM
TGI (SF-268 CNS): > 100 µM
TGI (MDA-MB-435): > 100 µM
TGI (T-47D breast): > 100 µM
TGI (OVCAR-4 ovarian): > 100 µM
TGI (NCI-H522 lung): > 100 µM
TGI (U251 CNS): > 100 µM
TGI (SK-OV-3 ovarian): > 100 µM
TGI (NCI-H460 lung): > 100 µM
TGI (KM12 colon): > 100 µM
TGI (HL-60(TB) leukemia): 48.3 µM
TGI (CAKI-1 renal): > 100 µM
TGI (K-562 leukemia): > 100 µM
TGI (RXF 393 renal): > 100 µM
TGI (SNB-75 CNS): > 100 µM
TGI (A549 NSCLC): > 100 µM
TGI (MALME-3M melanoma): > 100 µM
TGI (SK-MEL-28 melanoma): > 100 µM
TGI (SR leukemia): > 100 µM
TGI (IGROV1 ovarian): > 100 µM
TGI (PC-3 prostate): > 100 µM
TGI (NCI/ADR-RES ovarian): > 100 µM
TGI (HCT-116 colon): > 100 µM
TGI (EKVX NSCLC): > 100 µM
TGI (MOLT-4 leukemia): > 100 µM
TGI (SK-MEL-5 melanoma): > 100 µM
TGI (OVCAR-5 ovarian): > 100 µM
TGI (COLO 205 colon): > 100 µM
TGI (HCT-15 colon): > 100 µM
TGI (HOP-62 NSCLC): > 100 µM
TGI (MDA-N): > 100 µM
TGI (SK-MEL-2 melanoma): > 100 µM
TGI (SN12C renal): > 100 µM
TGI (SNB-19 CNS): > 100 µM
TGI (UACC-62 melanoma): 97.5 µM
TGI (OVCAR-3 ovarian): 44.9 µM
TGI (DU-145 prostate): > 100 µM
TGI (MCF7 breast): > 100 µM
TGI (786-0 renal): > 100 µM
TGI (A498 renal): > 100 µM

COc1cc(C2c3cc4c(cc3OC(NCCO)C2C)OCO4)cc(OC)c1OC (stereo not given)
TGI (HCC-2998 colon): > 23.2 µM
TGI (SF-539 CNS): 0.635 µM
TGI (M14 melanoma): > 45 µM
TGI (HOP-92 NSCLC): 93 µM
TGI (ACHN renal): > 91.5 µM
TGI (UACC-257 melanoma): > 100 µM
TGI (UO-31 renal): > 76.4 µM
TGI (HS 578T breast): > 100 µM
TGI (OVCAR-8 ovarian): > 100 µM
TGI (SW-620 colon): > 100 µM
TGI (LOX IMVI melanoma): > 100 µM
TGI (NCI-H23 lung): > 100 µM
TGI (HT29 colon): 21.4 µM
TGI (TK-10 renal): > 96.3 µM
TGI (RPMI-8226 leukemia): > 34 µM
TGI (NCI-H226 lung): 9.84 µM
TGI (MDA-MB-231 breast): > 100 µM
TGI (SF-268 CNS): > 84.9 µM
TGI (MDA-MB-435): 0.463 µM
TGI (T-47D breast): > 100 µM
TGI (OVCAR-4 ovarian): > 100 µM
TGI (NCI-H522 lung): 1.62 µM
TGI (U251 CNS): 12.5 µM
TGI (BT-549 breast): > 100 µM
TGI (SK-OV-3 ovarian): > 100 µM
TGI (NCI-H460 lung): > 100 µM
TGI (KM12 colon): > 70.2 µM
TGI (CAKI-1 renal): > 54.3 µM
TGI (RXF 393 renal): > 100 µM
TGI (SNB-75 CNS): > 71.7 µM
TGI (A549 NSCLC): > 100 µM
TGI (MALME-3M melanoma): > 100 µM
TGI (SK-MEL-28 melanoma): > 100 µM
TGI (IGROV1 ovarian): > 100 µM
TGI (PC-3 prostate): > 100 µM
TGI (NCI/ADR-RES ovarian): > 100 µM
TGI (HCT-116 colon): > 100 µM
TGI (EKVX NSCLC): > 100 µM
TGI (MOLT-4 leukemia): 26.3 µM
TGI (SK-MEL-5 melanoma): 13.4 µM
TGI (OVCAR-5 ovarian): > 100 µM
TGI (COLO 205 colon): 12.3 µM
TGI (HCT-15 colon): > 34.8 µM
TGI (HOP-62 NSCLC): 9.03 µM
TGI (MDA-N): 0.5 µM
TGI (SK-MEL-2 melanoma): > 100 µM
TGI (SN12C renal): > 100 µM
TGI (SNB-19 CNS): > 100 µM
TGI (UACC-62 melanoma): > 100 µM
TGI (OVCAR-3 ovarian): 0.603 µM
TGI (DU-145 prostate): > 100 µM
TGI (MCF7 breast): > 100 µM
TGI (786-0 renal): > 100 µM
TGI (A498 renal): 2.81 µM

— PubChem BioAssay (NCI)
